Patent US12428412B2 (DANA-FARBER CANCER INSTITUTE, INC., priority 2018, dated 2025)
Entries after “also recorded” stand apart in the source; their conditions may differ.

Key:
[1] = Tolerability in human CRBN knock in mice; format: in vivo
Protocol: (§1) CPD 1 was tested in mice for maximum tolerated dose (MTD) (FIG. 6A). The mice were treated with 10 mg/kg (mpk), 20 mpk, and 40 mpk with 4 mice in each group. The compound was also tested in human CRBN knock in mice, the blood samples were collected after 21 day treatment. All the tested blood samples were normal.

EP300 [2] = target: T1, EP300 (Homo sapiens, UniProt Q09472); experiment: Cellular degradation assay (immunoblot) in Kelly NB cells, EP300; format: cell-based; conditions: dose or time dependent
T1 construct: Whole cell lysates were collected using ice cold lysis buffer; endogenous in cells; host or cells: Kelly neuroblastoma cells (incl. Ch2.2, LACZ and CRBN knockout lines)
T1 sequence (Q09472 whole entry): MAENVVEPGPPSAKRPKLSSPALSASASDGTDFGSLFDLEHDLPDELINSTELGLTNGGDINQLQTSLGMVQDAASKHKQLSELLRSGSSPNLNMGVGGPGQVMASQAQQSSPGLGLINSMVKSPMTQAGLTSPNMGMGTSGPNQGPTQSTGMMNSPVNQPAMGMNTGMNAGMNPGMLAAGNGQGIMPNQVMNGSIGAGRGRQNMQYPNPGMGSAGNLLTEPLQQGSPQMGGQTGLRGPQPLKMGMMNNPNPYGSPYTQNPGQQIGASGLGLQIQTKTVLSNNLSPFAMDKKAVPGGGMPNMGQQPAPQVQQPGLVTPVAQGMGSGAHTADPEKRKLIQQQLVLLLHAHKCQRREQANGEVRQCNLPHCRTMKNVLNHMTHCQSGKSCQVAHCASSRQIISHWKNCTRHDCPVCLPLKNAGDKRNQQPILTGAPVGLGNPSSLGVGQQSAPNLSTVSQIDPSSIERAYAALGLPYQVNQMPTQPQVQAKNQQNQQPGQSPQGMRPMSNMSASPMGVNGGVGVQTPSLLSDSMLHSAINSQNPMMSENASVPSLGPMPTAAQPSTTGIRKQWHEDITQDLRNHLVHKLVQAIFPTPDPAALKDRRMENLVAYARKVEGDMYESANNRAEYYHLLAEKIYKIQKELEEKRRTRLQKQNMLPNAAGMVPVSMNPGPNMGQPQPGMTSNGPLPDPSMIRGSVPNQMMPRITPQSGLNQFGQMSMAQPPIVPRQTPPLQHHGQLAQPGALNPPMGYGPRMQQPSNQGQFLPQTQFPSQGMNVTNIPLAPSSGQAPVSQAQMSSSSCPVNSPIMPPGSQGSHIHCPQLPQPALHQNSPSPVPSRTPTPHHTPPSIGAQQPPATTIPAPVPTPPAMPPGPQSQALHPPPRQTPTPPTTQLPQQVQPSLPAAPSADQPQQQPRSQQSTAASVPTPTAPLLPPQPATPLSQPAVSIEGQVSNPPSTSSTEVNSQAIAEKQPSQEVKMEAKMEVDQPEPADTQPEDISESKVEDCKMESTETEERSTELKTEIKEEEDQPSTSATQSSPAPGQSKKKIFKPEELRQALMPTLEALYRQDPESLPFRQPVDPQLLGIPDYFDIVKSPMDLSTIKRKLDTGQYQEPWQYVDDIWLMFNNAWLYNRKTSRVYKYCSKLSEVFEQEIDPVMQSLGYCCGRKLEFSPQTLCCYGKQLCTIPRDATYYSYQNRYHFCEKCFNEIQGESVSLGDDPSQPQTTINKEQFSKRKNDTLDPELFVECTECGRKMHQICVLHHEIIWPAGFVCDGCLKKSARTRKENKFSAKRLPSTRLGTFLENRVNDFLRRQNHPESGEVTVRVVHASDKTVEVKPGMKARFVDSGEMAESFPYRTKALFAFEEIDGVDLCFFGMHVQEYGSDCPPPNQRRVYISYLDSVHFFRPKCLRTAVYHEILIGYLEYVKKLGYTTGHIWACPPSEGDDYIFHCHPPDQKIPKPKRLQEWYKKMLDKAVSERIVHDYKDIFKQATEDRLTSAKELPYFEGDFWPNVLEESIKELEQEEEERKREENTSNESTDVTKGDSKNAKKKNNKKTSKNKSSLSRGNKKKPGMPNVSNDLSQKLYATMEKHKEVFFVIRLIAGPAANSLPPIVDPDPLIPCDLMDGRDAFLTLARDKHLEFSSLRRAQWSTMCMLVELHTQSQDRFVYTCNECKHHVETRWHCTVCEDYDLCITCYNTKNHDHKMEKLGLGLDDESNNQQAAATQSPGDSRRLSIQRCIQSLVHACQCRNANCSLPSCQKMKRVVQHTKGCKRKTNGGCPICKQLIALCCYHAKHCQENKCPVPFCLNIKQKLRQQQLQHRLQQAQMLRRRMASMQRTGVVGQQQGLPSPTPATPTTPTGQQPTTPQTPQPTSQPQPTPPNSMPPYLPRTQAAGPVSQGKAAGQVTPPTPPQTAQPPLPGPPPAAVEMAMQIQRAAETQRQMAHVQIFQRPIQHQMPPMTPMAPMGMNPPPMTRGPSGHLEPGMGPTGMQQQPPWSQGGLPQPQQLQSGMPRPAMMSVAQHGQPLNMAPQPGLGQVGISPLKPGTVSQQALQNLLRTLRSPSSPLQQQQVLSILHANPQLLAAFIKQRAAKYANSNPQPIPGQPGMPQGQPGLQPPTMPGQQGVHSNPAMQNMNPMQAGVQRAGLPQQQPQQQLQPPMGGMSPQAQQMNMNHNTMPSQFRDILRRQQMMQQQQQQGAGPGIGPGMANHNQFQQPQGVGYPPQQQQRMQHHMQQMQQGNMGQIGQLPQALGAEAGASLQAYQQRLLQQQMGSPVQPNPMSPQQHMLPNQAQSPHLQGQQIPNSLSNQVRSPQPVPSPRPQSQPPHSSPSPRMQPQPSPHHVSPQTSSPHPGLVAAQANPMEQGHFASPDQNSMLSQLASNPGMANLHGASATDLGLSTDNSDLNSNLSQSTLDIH
Protocol: Kelly Neuroblastoma cells were seeded at 1,000,000 cells per well in 6 well plates and were treated in a dose-dependent manner for 24 to 72 hours. Whole cell lysates were collected using ice cold lysis buffer [300 mM NaCl, 50 mM Tris-HCl, pH 7.5, 0.5% Triton X-100, 1% SDS, 1 mM dithiothreitol (DTT), Roche® protease inhibitor cocktail (1:000), 25 units/mL Benzonase] and blotted at a protein concentration of 20 μg. Histone extraction was performed using the EpiQuik™ Total Histone Extraction Kit (OP-0006-100, Epigentek) and blotted at a protein concentration of 4 μg.
Whole cell lysates were resolved in NuPAGE® 3-8% Tris-Acetate polyacrylamide gels (EA03785BOX, Invitrogen™) and histone extraction lysates in Bolt 4-12% Bis-Tris polyacrylamide gels (NWO4125BOX, Invitrogen™). Afterwards, gels were transferred to nitrocellulose membranes (LC2001, Invitrogen™). […]
The experimental protocol is the same as in Example 24. The protein level was determined by immunoblot using EP300 antibody, CBP antibody or H3K27ac antibody. […]

EP300 [3] = target: T1, EP300; experiment: Immunoblot in CRBN knockout Kelly cell lines, EP300; format: cell-based; conditions: CRBN-1 and CRBN-3 Kelly lines, 500 nM
Protocol: (§2) CPD 1 was tested in CRBN knockout (k/o) Kelly cell lines. The experimental protocol is the same as in Example 24.

[4] = Maximum tolerated dose (MTD) study in mice; format: in vivo; conditions: mice, 10, 20 and 40 mg/kg
Protocol: as §1

[5] = system: Kelly cell lines xenograft; experiment: Xenograft model of Kelly cell lines; format: in vivo; conditions: 40 mpk IP from day 10
From the text: The xenograft model of Kelly cell lines was used to assess the in vivo efficacy. The Kelly cells were implanted 2 M into animals. The treatment started with day 10 at 40 mpk IP.

EP300 [6] = target: T2, EP300 (Mus musculus, UniProt B2RWS6); experiment: Immunohistochemistry (IHC) staining of liver from MTD study, EP300; format: in vivo; conditions: normal mice, 40 mpk, 14-day treatment
T2 construct: from tissue; host or cells: mouse liver (CD1 mice)
From the text: Immunohistochemistry (IHC) staining was used to examine a liver from MTD study. […] No changes in CBP and H3K27Ac levels were observed.

HAT (EP300) domain = target: T3, HAT (EP300) domain (Homo sapiens, UniProt Q09472); experiment: AlphaScreen assay, HAT (EP300) domain; format: binding
T3 sequence (Q09472 1287-1663 limits assumed): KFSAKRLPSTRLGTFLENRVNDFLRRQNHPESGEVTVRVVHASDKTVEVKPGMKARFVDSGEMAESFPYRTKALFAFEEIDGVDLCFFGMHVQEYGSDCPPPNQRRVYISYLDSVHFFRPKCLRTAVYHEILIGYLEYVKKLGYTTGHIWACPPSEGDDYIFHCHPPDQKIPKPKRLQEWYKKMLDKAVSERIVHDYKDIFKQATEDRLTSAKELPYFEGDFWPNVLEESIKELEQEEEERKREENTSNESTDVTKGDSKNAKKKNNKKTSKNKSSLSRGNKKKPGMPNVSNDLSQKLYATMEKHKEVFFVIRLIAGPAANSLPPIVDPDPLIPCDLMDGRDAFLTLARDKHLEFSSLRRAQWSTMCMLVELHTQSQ
Protocol: The AlphaScreen™ assay was performed in 384-well plate format using white AlphaPlate (PerkinElmer®, USA), and transfer of pre-diluted compound (100 nL) was performed using a Janus Workstation (PerkinElmer®, USA). All subsequent steps were carried out in assay buffer (50 mM 4-(2-hydroxyethyl)-1-piperazineethanesulfonic acid (HEPES), pH 7.5, 0.1% (wt/vol) bovine serum albumin (BSA) and 0.01% (vol/vol) Tween-20). In brief, 10 μL of assay buffer containing enzyme (2 nM Final) was pre-incubated for 15 min with dilutions of compound. The enzyme reaction was initiated by the addition of substrate (5 μL) consisting of acetyl Co-A 2-OG (5 μM Final).
FAS final concentration was 10 μM. Histone tail-GGK Biotin final concentration was 100 nM Final. The enzyme reaction was allowed to proceed for 30 minutes and was stopped by the addition of 5 μL of assay buffer containing ethylenediaminetetraacetic acid (EDTA) (40 mM) and NaCl (1200 mM). The final concentration of dimethyl sulfoxide (DMSO) was 1%. Streptavidin donor beads (0.08 mg/mL) and protein-A-conjugated acceptor beads (0.08 mg/mL) were preincubated for 1 h with antibody to methyl mark (300 ng/mL Final), and the presence of histone H3 product acetylation mark was detected using the preincubated AlphaScreen™ beads (5 μL). Detection was allowed to proceed for 2 hours at rt, and the assay plates were read on the Envision™ 2104 plate reader. Data were normalized to the (no-enzyme) control, and the IC50 values were determined via nonlinear regression curve fit using GraphPad Prism (FIG. 4E-FIG. 4H).
AlphaScreen™ assay was used to determine the binding of inventive degrader compound toward both CRBN and HAT domain. The experimental protocol is the same as in Example 26.

CBP = target: T4, CBP (Homo sapiens, UniProt Q92793); experiment: Immunoblot in CRBN knockout Kelly cell lines, CBP; format: cell-based; conditions: CRBN-1 and CRBN-3 Kelly lines, 500 nM
T4 construct: endogenous in cells; host or cells: Kelly neuroblastoma cells (incl. Ch2.2, LACZ and CRBN knockout lines)
T4 sequence (Q92793 whole entry): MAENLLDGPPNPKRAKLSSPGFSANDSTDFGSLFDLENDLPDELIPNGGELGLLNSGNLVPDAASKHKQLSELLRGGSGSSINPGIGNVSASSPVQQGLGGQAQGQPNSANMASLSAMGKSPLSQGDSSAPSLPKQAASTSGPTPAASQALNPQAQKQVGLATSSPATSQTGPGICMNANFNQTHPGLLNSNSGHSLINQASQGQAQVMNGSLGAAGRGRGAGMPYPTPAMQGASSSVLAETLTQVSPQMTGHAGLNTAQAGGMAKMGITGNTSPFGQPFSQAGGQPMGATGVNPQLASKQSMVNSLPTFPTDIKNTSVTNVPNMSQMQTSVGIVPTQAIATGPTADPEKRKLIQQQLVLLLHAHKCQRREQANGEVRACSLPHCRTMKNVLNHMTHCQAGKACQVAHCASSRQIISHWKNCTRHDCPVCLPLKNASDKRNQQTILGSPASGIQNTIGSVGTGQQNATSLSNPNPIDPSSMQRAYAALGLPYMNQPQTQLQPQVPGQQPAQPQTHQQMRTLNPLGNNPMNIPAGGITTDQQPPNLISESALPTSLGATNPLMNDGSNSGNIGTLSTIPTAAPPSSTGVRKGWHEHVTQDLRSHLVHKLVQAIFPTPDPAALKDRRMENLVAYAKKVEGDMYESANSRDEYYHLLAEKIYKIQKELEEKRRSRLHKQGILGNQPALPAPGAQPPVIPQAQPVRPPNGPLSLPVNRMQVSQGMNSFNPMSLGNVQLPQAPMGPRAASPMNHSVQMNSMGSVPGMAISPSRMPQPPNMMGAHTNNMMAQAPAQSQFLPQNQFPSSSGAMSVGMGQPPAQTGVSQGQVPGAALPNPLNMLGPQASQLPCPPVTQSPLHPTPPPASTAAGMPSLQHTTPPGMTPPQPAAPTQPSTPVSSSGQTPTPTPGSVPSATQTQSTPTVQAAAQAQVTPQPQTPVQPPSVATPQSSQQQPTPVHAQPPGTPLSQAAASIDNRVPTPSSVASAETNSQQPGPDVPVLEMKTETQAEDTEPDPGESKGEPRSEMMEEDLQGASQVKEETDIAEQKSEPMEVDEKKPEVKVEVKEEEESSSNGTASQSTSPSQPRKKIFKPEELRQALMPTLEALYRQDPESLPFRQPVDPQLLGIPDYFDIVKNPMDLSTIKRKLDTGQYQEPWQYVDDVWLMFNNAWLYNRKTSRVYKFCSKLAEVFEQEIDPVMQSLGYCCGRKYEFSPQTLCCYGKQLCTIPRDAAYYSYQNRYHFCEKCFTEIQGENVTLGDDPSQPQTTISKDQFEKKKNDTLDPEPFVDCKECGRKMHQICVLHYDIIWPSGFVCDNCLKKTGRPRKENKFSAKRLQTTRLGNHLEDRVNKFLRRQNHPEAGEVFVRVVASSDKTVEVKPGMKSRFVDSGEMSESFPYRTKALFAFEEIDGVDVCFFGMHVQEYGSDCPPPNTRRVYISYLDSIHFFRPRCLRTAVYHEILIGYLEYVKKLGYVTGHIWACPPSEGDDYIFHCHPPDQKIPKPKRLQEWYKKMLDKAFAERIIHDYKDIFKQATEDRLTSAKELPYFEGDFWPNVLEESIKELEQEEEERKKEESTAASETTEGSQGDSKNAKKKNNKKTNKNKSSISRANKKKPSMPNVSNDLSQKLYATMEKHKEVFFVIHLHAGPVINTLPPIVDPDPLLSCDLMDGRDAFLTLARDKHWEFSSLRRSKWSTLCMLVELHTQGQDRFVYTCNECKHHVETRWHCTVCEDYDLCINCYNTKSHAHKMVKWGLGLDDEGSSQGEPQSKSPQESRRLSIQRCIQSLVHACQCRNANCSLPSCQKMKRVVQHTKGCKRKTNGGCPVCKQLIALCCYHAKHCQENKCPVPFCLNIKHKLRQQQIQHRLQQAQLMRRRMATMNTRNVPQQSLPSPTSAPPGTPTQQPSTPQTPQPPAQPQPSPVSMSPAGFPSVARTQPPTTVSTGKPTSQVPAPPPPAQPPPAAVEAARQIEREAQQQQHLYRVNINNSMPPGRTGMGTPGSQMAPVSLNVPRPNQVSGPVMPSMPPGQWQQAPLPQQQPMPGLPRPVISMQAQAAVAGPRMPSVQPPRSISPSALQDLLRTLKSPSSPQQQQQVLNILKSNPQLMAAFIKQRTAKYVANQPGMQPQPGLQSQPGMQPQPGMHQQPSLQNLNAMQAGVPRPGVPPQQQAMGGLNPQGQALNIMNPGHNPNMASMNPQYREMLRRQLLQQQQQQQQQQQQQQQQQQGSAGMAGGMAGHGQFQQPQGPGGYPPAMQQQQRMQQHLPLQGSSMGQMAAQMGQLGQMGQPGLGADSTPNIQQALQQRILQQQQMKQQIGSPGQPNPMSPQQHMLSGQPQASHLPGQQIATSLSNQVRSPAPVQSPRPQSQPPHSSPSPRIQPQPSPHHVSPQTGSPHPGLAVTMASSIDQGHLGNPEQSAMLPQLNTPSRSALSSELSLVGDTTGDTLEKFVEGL
Protocol: as §2

Q: Which blood samples ([1]; human CRBN knock in mice, after 21 day treatment) does the source give for `C[C@H](N(Cc1ccc(F)cc1)C(=O)CN1C(=O)O[C@@]2(CCc3cc(NC(=O)CCCCCCCCCCCNc4ccc5c(c4)C(=O)N(C4CCC(=O)NC4=O)C5=O)ccc32)C1=O)C(F)(F)F` (stereo partly drawn) [CPD 1, 12-((2-(2,6-dioxopiperidin-3-yl)-1,3-dioxoisoindolin-5-yl)amino)-N—((R)-3′-(2-((4-fluorobenzyl)((S)-1,1,1-trifluoropropan-2-yl)amino)-2-oxoethyl)-2′,4′-dioxo-2,3-dihydrospiro[indene-1,5′-oxazolidin]-5-yl)dodecanamide] here?
A: normal

Q: And the toxicity ([1]; humanized CRBN mice)?
A: no toxicity was observed

Q: What about the EP300 degradation (EP300 [2]) of the same compound?
A: selective degradation of EP300; also recorded: clear degradation of EP300

Q: And the “EP300 degradation in CRBN k/o lines” value (EP300 [3])?
A: did not degrade

Q: What about the body weight loss [4] of the same compound?
A: no weight loss was observed

Q: What about the tolerability [4] of the same compound?
A: well tolerated

Q: And the survival of animals [5]?
A: extended the survival of animals

Q: What about the tumor progression [5] of the same compound?
A: reduced tumor progression

Q: And the “EP300 (P300) level in liver tissue” value (EP300 [6])?
A: A drop in P300 levels was observed

Q: What about the “binding to HAT (EP300) domain” value (HAT (EP300) domain) of the same compound?
A: bound and bind

Q: And the “CBP degradation in CRBN k/o lines” value (CBP)?
A: did not degrade
